Laboratory results as given in US20210069249A1, “METHODS AND COMPOSITIONS OF CYTOTOXIC T CELL DEPLETION” (CRISPR THERAPEUTICS AG, priority 2018, published 2021).

Tests used:
exon 6 of the IL2RG gene = test: On-target cleavage efficiency (INDEL, TIDES protocol) of IL2RG gRNAs; assay type: cell-based; details: primary human CD3+ T cells; one day post-editing; 3 independent experiments
[1] = test system: off-target sites in primary human CD3+ cells; test: GUIDE-seq off-target analysis of IL2RG gRNAs; assay type: cell-based; details: for On-Target Read Count / on-target/off-target profile (GUIDE-seq) / GUIDE-seq Off-Targets / Present in Multiple Replicates: CD3+ T cells; for on-target/off-target profile (GUIDE-seq): multiple independent cell sample replicates; for GUIDE-seq Off-Targets: number of sites; for Present in Multiple Replicates: off-target sites found in at least 2 cell sample replicates;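 as to all read-outs here: Cas9 RNP plus double-stranded oligonucleotide nucleofected into CD3+ T cells, capture sites found by sequencing, sites also seen in RNP-free control cells discarded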
[2] = test system: TCR and CD3 expression in CD8+ and CD3+ T cells; test: TCR and CD3 expression by flow cytometry after TRAC editing; assay type: cell-based, human; details: day seven post-editing
[3] = test system: primary human CD8+ or CD3+ T cells; test: Cell viability and total cell counts after Cas9/gRNA RNP editing; details: day two post-editing
TRAC gene = test: On-target cleavage efficiency (INDEL, TIDES protocol) of TRAC gRNAs; details: day two post-editing, 2 independent experiments

**Q.** With “GC1: sgRNA targeting IL2RG exon 6, spacer 5′-ACCAGTGCCTGGCATGTAGT-3′ (spacer only, sgRNA scaffold lacks entry, further chemistry not given here)” as the substance, how does the “Average INDEL Frequency (%)” value (exon 6 of the IL2RG gene) read?
**A.** 46.43%

**Q.** “GC2: sgRNA targeting IL2RG exon 6, spacer 5′-CCAGTGCCTGGCATGTAGTA-3′ (spacer only, sgRNA scaffold lacks entry, further chemistry not given here)” was tested. Which “Average INDEL Frequency (%)” value (exon 6 of the IL2RG gene) did it give?
**A.** 74.67%

**Q.** Which “Average INDEL Frequency (%)” value (exon 6 of the IL2RG gene) does the source give for “GC3: sgRNA targeting IL2RG exon 6, spacer 5′-CAGTGCCTGGCATGTAGTAG-3′ (spacer only, sgRNA scaffold lacks entry, further chemistry not given here)” here?
**A.** 77.53%

**Q.** With “GC4: sgRNA targeting IL2RG exon 6, spacer 5′-GTAGGGGCACAACAAATATA-3′ (spacer only, sgRNA scaffold lacks entry, further chemistry not given here)” as the substance, how does the “Average INDEL Frequency (%)” value (exon 6 of the IL2RG gene) read?
**A.** 41.07%

**Q.** How did the “Average INDEL Frequency (%)” value (exon 6 of the IL2RG gene) turn out when “GC5: sgRNA targeting IL2RG exon 6, spacer 5′-GAATCCTTTCCTGTTTGCAT-3′ (spacer only, sgRNA scaffold lacks entry, further chemistry not given here)” was run?
**A.** 13.03%

**Q.** Which “Average INDEL Frequency (%)” value (exon 6 of the IL2RG gene) does the source give for “GC6: sgRNA targeting IL2RG exon 6, spacer 5′-CCTGTTTGCATTGGAAGCCG-3′ (spacer only, sgRNA scaffold lacks entry, further chemistry not given here)” here?
**A.** 14.80%

**Q.** For “GC7: sgRNA targeting IL2RG exon 6, spacer 5′-GAAGCCGTGGTTATCTCTGT-3′ (spacer only, sgRNA scaffold lacks entry, further chemistry not given here)”, which “Average INDEL Frequency (%)” value (exon 6 of the IL2RG gene) is on record?
**A.** 31.07%

**Q.** How did the “Average INDEL Frequency (%)” value (exon 6 of the IL2RG gene) turn out when “GC8: sgRNA targeting IL2RG exon 6, spacer 5′-GGTTATCTCTGTTGGCTCCA-3′ (spacer only, sgRNA scaffold lacks entry, further chemistry not given here)” was run?
**A.** 66.40%

**Q.** And the “On-Target Read Count” value [1]?
**A.** 4348

**Q.** And the “on-target/off-target profile (GUIDE-seq)” value [1]?
**A.** generally favorable

**Q.** What about the “GUIDE-seq Off-Targets” value [1] of the same substance?
**A.** 930

**Q.** What about the “Present in Multiple Replicates” value [1] of the same substance?
**A.** 3

**Q.** And the Off-Target/On-Target ([1]; site chr1 125180094, Intergenic)?
**A.** 1.54%

**Q.** What about the Off-Target/On-Target ([1]; site chr16 46390807, Intergenic) of the same substance?
**A.** 0.14%

**Q.** And the Off-Target/On-Target ([1]; site chr16 46399022, Intergenic)?
**A.** 0.46%

**Q.** “GC9: sgRNA targeting IL2RG exon 6, spacer 5′-GTTATCTCTGTTGGCTCCAT-3′ (spacer only, sgRNA scaffold lacks entry, further chemistry not given here)” was tested. Which “Average INDEL Frequency (%)” value (exon 6 of the IL2RG gene) did it give?
**A.** 31.37%

**Q.** Which results are given for “GC10: sgRNA targeting IL2RG exon 6, spacer 5′-AAGGCTGATAATCAATCCCA-3′ (spacer only, sgRNA scaffold lacks entry, further chemistry not given here)”?
**A.** Average INDEL Frequency (%) (exon 6 of the IL2RG gene): 71.77%; On-Target Read Count [1]: 5384; on-target/off-target profile (GUIDE-seq) [1]: generally favorable; GUIDE-seq Off-Targets [1]: 1227; Present in Multiple Replicates [1]: 14; Off-Target/On-Target ([1]; site chr3 108840645, Intronic, TRAT1): 3.05%; Off-Target/On-Target ([1]; site chr5 159185831, Intronic, RNF145): 0.20%; Off-Target/On-Target ([1]; site chr12 62289934, Intronic, USP15): 0.48%; Off-Target/On-Target ([1]; site chr21 17142630, Intergenic): 0.71%; Off-Target/On-Target ([1]; site chrUn_KI270438v1 104161): 1.60%; Off-Target/On-Target ([1]; site chrUn_KI270438v1 104938): 0.28%; Off-Target/On-Target ([1]; site chrUn_KI270438v1 109447): 0.39%; Off-Target/On-Target ([1]; site chrUn_KI270467v1 2297): 0.17%; Off-Target/On-Target ([1]; site chrUn_KI270467v1 2459): 0.17%; Off-Target/On-Target ([1]; site chrUn_KI270467v1 2622): 0.48%; Off-Target/On-Target ([1]; site chrUn_KI270467v1 2830): 0.13%; Off-Target/On-Target ([1]; site chrUn_KI270467v1 3365): 0.26%

**Q.** For “GC11: sgRNA targeting IL2RG exon 6, spacer 5′-GGAGCCAACAGAGATAACCA-3′ (spacer only, sgRNA scaffold lacks entry, further chemistry not given here)”, which “Average INDEL Frequency (%)” value (exon 6 of the IL2RG gene) is on record?
**A.** 15.60%

**Q.** For “GC12: sgRNA targeting IL2RG exon 6, spacer 5′-CCACGGCTTCCAATGCAAAC-3′ (spacer only, sgRNA scaffold lacks entry, further chemistry not given here)”, which “Average INDEL Frequency (%)” value (exon 6 of the IL2RG gene) is on record?
**A.** 58.43%

**Q.** And the “On-Target Read Count” value [1]?
**A.** 2352

**Q.** And the “on-target/off-target profile (GUIDE-seq)” value [1]?
**A.** generally favorable

**Q.** What about the “GUIDE-seq Off-Targets” value [1] of the same substance?
**A.** 1368

**Q.** And the “Present in Multiple Replicates” value [1]?
**A.** 4

**Q.** What about the Off-Target/On-Target ([1]; site chr13 18212170, Intronic, FAM230C) of the same substance?
**A.** 1.02%

**Q.** And the Off-Target/On-Target ([1]; site chrUn_KI270467v1 2459)?
**A.** 0.77%

**Q.** And the Off-Target/On-Target ([1]; site chrUn_KI270467v1 2660)?
**A.** 0.34%

**Q.** And the Off-Target/On-Target ([1]; site chrUn_KI270590v1 2621)?
**A.** 0.38%

**Q.** For “GC13: sgRNA targeting IL2RG exon 6, spacer 5′-GCTTCCAATGCAAACAGGAA-3′ (spacer only, sgRNA scaffold lacks entry, further chemistry not given here)”, which “Average INDEL Frequency (%)” value (exon 6 of the IL2RG gene) is on record?
**A.** 35.60%

**Q.** With “GC14: sgRNA targeting IL2RG exon 6, spacer 5′-TAGAAAAAAGAAAAGCAAAG-3′ (spacer only, sgRNA scaffold lacks entry, further chemistry not given here)” as the substance, how does the “Average INDEL Frequency (%)” value (exon 6 of the IL2RG gene) read?
**A.** 28.23%

**Q.** Which “Average INDEL Frequency (%)” value (exon 6 of the IL2RG gene) does the source give for “GC15: sgRNA targeting IL2RG exon 6, spacer 5′-TTGTGCCCCTACTACATGCC-3′ (spacer only, sgRNA scaffold lacks entry, further chemistry not given here)” here?
**A.** 46.77%

**Q.** “TRAC 2: sgRNA targeting TRAC, spacer 5′-AGAGCAACAGTGCTGTGGCC-3′ (spacer only, sgRNA scaffold lacks entry, chemistry not fully specified)” was tested. Which “CD3+ cells (%)” value ([2]; CD3+ T cells) did it give?
**A.** 43.17%

**Q.** And the “TCR+ cells (%)” value ([2]; CD3+ T cells)?
**A.** 8.63%

**Q.** What about the “CD3+ cells (%)” value ([2]; CD8+ T cells) of the same substance?
**A.** 24.34%

**Q.** And the “TCR+ cells (%)” value ([2]; CD8+ T cells)?
**A.** 8.1%

**Q.** What about the Cell count ([3]; CD3+ T cells) of the same substance?
**A.** 7.77E+05

**Q.** And the Cell count ([3]; CD8+ T cells)?
**A.** 7.84E+05

**Q.** And the “INDEL Frequency (%)” value (TRAC gene; CD3+ T cells)?
**A.** 53.85%

**Q.** And the “INDEL Frequency (%)” value (TRAC gene; CD8+ T cells)?
**A.** 59.5%

**Q.** For “TRAC 2: sgRNA targeting TRAC, spacer 5′-AGAGCAACAGTGCTGTGGCC-3′ (spacer only; sgRNA scaffold lacks entry; TRAC gRNA spacer, TRAC 2)”, which “Cell Viability (%)” value ([3]; CD3+ T cells) is on record?
**A.** 80%

**Q.** And the “Cell Viability (%)” value ([3]; CD8+ T cells)?
**A.** 88.5%
